For assay [1], the system named is choline acetyltransferase (ChAT). Description: choline acetyltransferase (ChAT) activity in rat septal neurons cultured on rat hippocampal astrocyte feeder layer. The class given is cell-based. Particulars: for ChAT activity: compound A 10-1000 nM. The procedure:
This experiment was done by a method reported by Pharmacology of Neurotrophic Factors, Ann. Rev. Pharmacol. Toxicol., Vol.37, pages 239-267, (1997).
Astrocytes were obtained from the new-born Sprague-Dawley (SD) rat hippocampus by trypsin digestion and cultured in a serum-containing medium in a culture flask. The confluent astrocytes were harvested and seeded on 96 well plates at the density of 5×10^4 cells/well and served as the feeder layer for neurons after halting the overgrowth with 10 μM cytosine arabinoside. Neurons were taken from the septal area of E17 fetal SD rats by trypsin digestion and seeded on the astrocyte feeder layer at the density of 7.5×10^4 cells/well in a serum-free medium. On the next day, the compound was added to the culture with or without 3 ng/ml recombinant human NGF (rhNGF) and cultured further for 7 days. Then cells were lysed with 5 mM Tris-HCl (pH 7.4)/0.1% Triton X-100 and choline acetyltransferase (ChAT) activity was measured radiometrically by the method of Fonnum.

Assay [2] relates to CA1 neurons. Description: 10-min forebrain ischemia (4-vessel occlusion) in rats, number of living CA1 pyramidal cells. Format: in vivo, rat. Particulars: male Wistar rats, 10-min 4 VO; 10 mg/kg orally 1 hr before and 4 hr after ischemia, then once daily for 6 days; counted 7 days after occlusion; P<0.05. How it is done:
Male Wistar rats (Japan Clea Inc., Tokyo, Japan) aged 9 weeks were used. Rats were subjected to 10-min forebrain ischemia using a method reported by Pulsinelli W. A. and Brierley J. B., Stroke, Vol.10, pages 267-272, (1979). Compound A (10 mg/kg) was orally administered 1 hr before and 4 hr after the ischemic operation, and from the next day, it was administered once daily for 6 days.
Rats were sacrificed 7 days after occlusion for histopathological observation. Under deep pentobarbital anesthesia, rats were perfused transcardially with physiological saline solution. The brains were removed, soaked in FAM (formaline:acetic acid:methanol=1:1:8) solution, and embedded in paraffin. Serial coronal sections (6 μm) were cut at the level of the anterior hippocampus, approximately 3.8-4.3 mm posterior to the bregma and stained with hematoxilin and eosin. The number of living pyramidal cells per 250 μm length of CA1 sector were counted under a light microscope. The average of the right and left neuronal densities were defined as the neuronal density for each rat.
Group differences in the number of CA1 pyramidal cells were analyzed using Student t-tests.

The mark [3] stands for this setting: in the presence of 3 ng/ml rhNGF, cultured 7 days (FIG. 2).
Where [4] appears, read: without rhNGF, cultured 7 days, rat septal neurons on astrocyte feeder layer (FIG. 1).

Data on two molecules can be found in patent US6500820B1, “Pharmaceutical composition for neurotrophic action” (priority 1998, dated 2002).

Turning to `O=C(CCC1CCN(Cc2ccccc2)CC1)c1ccc2c(c1)NCCCC2.O=C(O)/C=C/C(=O)O` [compound A, 3-[1-(phenylmethyl)-4-piperidinyl]-1-(2,3,4,5-tetrahydro-1H-1-benzazepin-8-yl)-1-propanone fumarate], the “low concentration from which neurotrophic action is shown” value in assay [1] (ChAT activity in rat septal neurons, with or without rhNGF) came out at 10 nm. Moreover, the ChAT activity result in assay [1] (setting [3]) is recorded as “markedly elevated ChAT activity”; in assay [1] (setting [4]), “apparently increased ChAT activity”. Moreover, in assay [2], the “number of CA1 pyramidal cells (survival of CA1 neurons) versus vehicle-treated 4 VO control” value is reported as “significantly greater than that of the vehicle-control”.
For `Nc1c2c(nc3ccccc13)CCCC2` [tacrine, reference compound], the ChAT activity entry in assay [1] (setting [3]) and in assay [1] (setting [4]) was “did not affect ChAT activity” in each case.
